Values quoted from earlier work, collected in US8067401B2, “Compounds and compositions for treating infection” (priority 2007, dated 2011).

System: HIV-1

For Prunellin, the “minimum inhibition concentration against HIV-1 in vitro” value is given as 2.2 µg/mL.
